Assay results reported in the NIST ThermoML archive (doi:10.1021/je049609w).
± gives the expanded uncertainty stated by the source.

Columns and labels:
[1] = refractive index (Na D-line) (dimensionless); xn = mol fraction of the nth substance listed; conditions: 101 kPa, Liquid
[2] = xn = mol fraction of the nth substance listed; conditions: 101 kPa, Liquid

C1COCCO1 [1,4-dioxane] + CCOC(=O)CC(=O)OCC
x1 = 1
Conditions	mass density, 298.15 K [kg/m3]	mass density, 303.15 K [kg/m3]	mass density, 308.15 K [kg/m3]	refractive index, 298.15 K	refractive index, 303.15 K	refractive index, 308.15 K	speed of sound, 298.15 K [m/s]	viscosity, 298.15 K [mPa·s]	viscosity, 303.15 K [mPa·s]	viscosity, 308.15 K [mPa·s]
[1]	–	–	–	1.4203 ± 0.0024	1.4164 ± 0.0024	1.4145 ± 0.0024	–	–	–	–
[2]	1028.6 ± 1.4	1022.9 ± 1.5	1017.2 ± 1.5	–	–	–	1345 ± 7	1.196 ± 0.038	1.095 ± 0.035	1.008 ± 0.032

C1COCCO1 [1,4-dioxane] + CCOC(C)=O
Conditions	mass density, 298.15 K [kg/m3]	mass density, 303.15 K [kg/m3]	mass density, 308.15 K [kg/m3]	refractive index, 298.15 K	refractive index, 303.15 K	refractive index, 308.15 K	speed of sound, 298.15 K [m/s]	viscosity, 298.15 K [mPa·s]	viscosity, 303.15 K [mPa·s]	viscosity, 308.15 K [mPa·s]
[1], x1 = 0.1004	–	–	–	1.3753 ± 0.0024	1.3716 ± 0.0024	1.368 ± 0.0024	–	–	–	–
[1], x1 = 0.2001	–	–	–	1.3798 ± 0.0024	1.3764 ± 0.0024	1.373 ± 0.0024	–	–	–	–
[1], x1 = 0.3021	–	–	–	1.3843 ± 0.0024	1.3813 ± 0.0024	1.3782 ± 0.0024	–	–	–	–
[1], x1 = 0.4002	–	–	–	1.389 ± 0.0024	1.3862 ± 0.0024	1.3834 ± 0.0024	–	–	–	–
[1], x1 = 0.5071	–	–	–	1.3942 ± 0.0024	1.3915 ± 0.0024	1.3889 ± 0.0024	–	–	–	–
[1], x1 = 0.6001	–	–	–	1.3991 ± 0.0024	1.3964 ± 0.0024	1.3938 ± 0.0024	–	–	–	–
[1], x1 = 0.6972	–	–	–	1.4041 ± 0.0024	1.4015 ± 0.0024	1.3989 ± 0.0024	–	–	–	–
[1], x1 = 0.799	–	–	–	1.4094 ± 0.0024	1.4069 ± 0.0024	1.4044 ± 0.0024	–	–	–	–
[1], x1 = 0.8991	–	–	–	1.4148 ± 0.0024	1.4122 ± 0.0024	1.4097 ± 0.0024	–	–	–	–
[1], x1 = 1	–	–	–	1.4203 ± 0.0024	1.4164 ± 0.0024	1.4145 ± 0.0024	–	–	–	–
[2], x1 = 0.1004	906.2 ± 1.2	900 ± 1.2	893.9 ± 1.3	–	–	–	1174 ± 7	0.467 ± 0.017	0.442 ± 0.017	0.417 ± 0.016
[2], x1 = 0.2001	918.8 ± 1.2	912.7 ± 1.3	906.6 ± 1.3	–	–	–	1193 ± 7	0.505 ± 0.018	0.478 ± 0.018	0.45 ± 0.017
[2], x1 = 0.3021	931.9 ± 1.2	925.8 ± 1.3	919.8 ± 1.3	–	–	–	1212 ± 7	0.543 ± 0.019	0.513 ± 0.019	0.482 ± 0.018
[2], x1 = 0.4002	944.7 ± 1.3	938.7 ± 1.3	932.7 ± 1.4	–	–	–	1231 ± 7	0.595 ± 0.021	0.56 ± 0.02	0.525 ± 0.019
[2], x1 = 0.5071	958.7 ± 1.3	952.8 ± 1.3	946.9 ± 1.4	–	–	–	1250 ± 7	0.646 ± 0.022	0.607 ± 0.021	0.568 ± 0.02
[2], x1 = 0.6001	971.1 ± 1.3	965.2 ± 1.4	959.5 ± 1.4	–	–	–	1269 ± 7	0.707 ± 0.024	0.671 ± 0.023	0.616 ± 0.021
[2], x1 = 0.6972	984.4 ± 1.3	978.6 ± 1.4	972.8 ± 1.4	–	–	–	1288 ± 7	0.791 ± 0.026	0.735 ± 0.025	0.684 ± 0.023
[2], x1 = 0.799	998.7 ± 1.4	993 ± 1.4	987.2 ± 1.5	–	–	–	1307 ± 7	0.908 ± 0.03	0.843 ± 0.028	0.778 ± 0.026
[2], x1 = 0.8991	1013.3 ± 1.4	1007.7 ± 1.4	1001.9 ± 1.5	–	–	–	1327 ± 7	1.029 ± 0.033	0.951 ± 0.031	0.873 ± 0.029
[2], x1 = 1	1028.6 ± 1.4	1022.9 ± 1.5	1017.2 ± 1.5	–	–	–	1345 ± 7	1.195 ± 0.038	1.095 ± 0.035	1.008 ± 0.032

C1COCCO1 [1,4-dioxane] + ClC=C(Cl)Cl
x1 = 1
Conditions	mass density, 298.15 K [kg/m3]	mass density, 303.15 K [kg/m3]	mass density, 308.15 K [kg/m3]	refractive index, 298.15 K	refractive index, 303.15 K	refractive index, 308.15 K	speed of sound, 298.15 K [m/s]	viscosity, 298.15 K [mPa·s]	viscosity, 303.15 K [mPa·s]	viscosity, 308.15 K [mPa·s]
[1]	–	–	–	1.4203 ± 0.0024	1.4164 ± 0.0024	1.4145 ± 0.0024	–	–	–	–
[2]	1028.6 ± 1.4	1022.9 ± 1.5	1017.2 ± 1.5	–	–	–	1345 ± 7	1.196 ± 0.038	1.102 ± 0.035	1.008 ± 0.032

C1COCCO1 [1,4-dioxane] + Clc1ccccc1Cl
x1 = 1
Conditions	mass density, 298.15 K [kg/m3]	mass density, 303.15 K [kg/m3]	mass density, 308.15 K [kg/m3]	refractive index, 298.15 K	refractive index, 303.15 K	refractive index, 308.15 K	speed of sound, 298.15 K [m/s]	viscosity, 298.15 K [mPa·s]	viscosity, 303.15 K [mPa·s]	viscosity, 308.15 K [mPa·s]
[1]	–	–	–	1.4203 ± 0.0024	1.4164 ± 0.0024	1.4145 ± 0.0024	–	–	–	–
[2]	1028.6 ± 1.4	1022.9 ± 1.5	1017.2 ± 1.5	–	–	–	1345 ± 7	1.196 ± 0.038	1.102 ± 0.035	1.008 ± 0.032

C1COCCO1 [1,4-dioxane] + OCCCl
x1 = 1
Conditions	mass density, 298.15 K [kg/m3]	mass density, 303.15 K [kg/m3]	mass density, 308.15 K [kg/m3]	refractive index, 298.15 K	refractive index, 303.15 K	refractive index, 308.15 K	speed of sound, 298.15 K [m/s]	viscosity, 298.15 K [mPa·s]	viscosity, 303.15 K [mPa·s]	viscosity, 308.15 K [mPa·s]
[1]	–	–	–	1.4203 ± 0.0024	1.4164 ± 0.0024	1.4145 ± 0.0024	–	–	–	–
[2]	1028.6 ± 1.4	1022.9 ± 1.5	1017.2 ± 1.5	–	–	–	1345 ± 7	1.196 ± 0.038	1.095 ± 0.035	1.008 ± 0.032
